According to patent publication US6057325A, “Hexahydro-pyrido(4,3-b)indole derivatives as antipsychotic drugs” (Janssen Pharmaceutia, N.V., priority 1996, dated 2000):

Assays:
Type in all cases: in vivo
dopamine = experiment: Combined ATN test in rats: apomorphine (APO) challenge, central dopamine antagonism; conditions: Rattus norvegicus, sc, subcutaneous pretreatment, dose protecting 50% of animals, central dopamine antagonistic activity
[1] = test system: serotonin 5HT2 -receptors; experiment: Combined ATN test in rats: tryptamine (TRY) challenge, central and peripheral serotonin antagonism; conditions: subcutaneous pretreatment, dose protecting 50% of animals; for TRY convulsions ED50: central serotonin antagonistic activity; for TRY hyperaemia ED50: peripheral serotonin antagonistic activity
Description: The central dopamine antagonistic and serotonin antagonistic activity of the subject compounds is evidenced by the experimental data obtained in the combined apomorphine (APO), tryptamine (TRY) and norepinephrine (NOR) test in rats. Said combined apomorphine, tryptamine and norepinephrine test is described in Arch. Int. Pharmacodyn., 227, 238-253 (1977) and provides an empirical evaluation of the relative specificity with which drugs may effect particular neurotransmitter systems centrally (CNS) as well as peripherally. […] Central dopamine antagonism is evaluated by challenging rats, subcutaneously pretreated with different doses of the test compound, with apomorphine which is a dopamine agonist. Next, serotonin antagonism is evaluated by challenging the same rats, subcutaneously pretreated with different doses of the test compound, with tryptamine which is an agonist at serotonin 5HT2 -receptors. Both central and peripheral serotonin antagonism can be assessed in this test. Centrally acting serotonin antagonists are potential antipsychotic drugs, in particular when simultaneously displaying dopamine antagonism in the first part of this test. Finally, α-adrenergic antagonistic activity of the test compounds is evaluated by challenging the same rats, subcutaneously pretreated with different doses of the test compound, with norepinephrine which is an α-adrenergic agonist.
The experimental data are summarized in Table 3 and expressed as ED50 values in mg/kg body weight, which are defined as the dose at which each of the tested compounds protects 50% of the tested animals from a relevant response evoked by the above-mentioned challenging substances. Column APO lists the results of the apomorphine challenge, indicating central dopamine antagonistic activity. Column TRY convulsions and TRY hyperaemia list the results of the tryptamine challenge, indicating central and peripheral serotonin antagonistic activity respectively. Column NOR lists the results of the norepinephrine challenge, indicating α-adrenergicantagonist activity. The favourable pharmacological properties of the compounds of formula (I) lie in their potent central dopamine (column APO) and serotonin (column TRY convulsions) antagonistic activity.

α-adrenergic = experiment: Combined ATN test in rats: norepinephrine (NOR) challenge, α-adrenergic antagonist activity; conditions: Rattus norvegicus, sc, subcutaneous pretreatment, dose protecting 50% of animals

Row | SMILES | ED50 (dopamine) | TRY convulsions ED50 [1] | TRY hyperaemia ED50 [1] | ED50 (α-adrenergic)
1 | Cc1nc2sccn2c(=O)c1CCN1CC[C@H]2Nc3ccccc3[C@@H]2C1 (racemic) [Compound 11, (±)-trans-6-[2-(1,3,4,4a,5,9b-hexahydro-2H-pyrido[4,3-b]indol-2-yl)ethyl]-7-methyl-5H-thiazolo[3,2-a]pyrimidin-5-one] | 0.31 mg/kg | 0.31 mg/kg | ≤ 0.04 mg/kg | –
2 | Cc1nc2sccn2c(=O)c1CCN1CC[C@H]2Nc3ccc(F)cc3[C@@H]2C1 (racemic) [Compound 15, (±)-trans-6-[2-(8-fluoro-1,3,4,4a,5,9b-hexahydro-2H-pyrido[4,3-b]indol-2-yl)ethyl]-7-methyl-5H-thiazolo[3,2-a]pyrimidin-5-one] | 0.31 mg/kg | 0.31 mg/kg | ≤ 0.0025 mg/kg | > 10 mg/kg
3 | Cc1nc2n(c(=O)c1CCN1CC[C@@H]3[C@@H](C1)c1cc(F)ccc1N3c1ccc(F)cc1)CCS2 (racemic) [Compound 23, (±)-trans-6-[2-[8-fluoro-5-(4-fluoro-phenyl)-1,3,4,4a,5,9b-hexahydro-2H-pyrido[4,3-b]indol-2-yl]ethyl]-2,3-dihydro-7-methyl-5H-thiazolo[3,2-a]pyrimidin-5-one] | 0.12 mg/kg | 0.08 mg/kg | ≤ 0.01 mg/kg | 0.03 mg/kg
4 | Cc1nc2scc(C)n2c(=O)c1CCN1CC[C@H]2Nc3ccccc3[C@@H]2C1 (relative stereo) [Compound 12] | 1.25 mg/kg | 1.25 mg/kg | 0.02 mg/kg | > 10 mg/kg
5 | Cc1nc2n(c(=O)c1CCN1CC[C@H]3Nc4ccccc4[C@@H]3C1)CCS2 (relative stereo) [Compound 13] | 2.5 mg/kg | 5 mg/kg | ≤ 0.04 mg/kg | –
6 | Cc1nc2ccccn2c(=O)c1CCN1CC[C@H]2Nc3ccccc3[C@@H]2C1 (relative stereo) [Compound 14] | 0.31 mg/kg | 1.25 mg/kg | ≤ 0.16 mg/kg | –
7 | Cc1nc2scc(C)n2c(=O)c1CCN1CC[C@H]2Nc3ccc(F)cc3[C@@H]2C1 (relative stereo) [Compound 16] | 0.25 mg/kg | 0.45 mg/kg | 0.015 mg/kg | > 10 mg/kg
8 | Cc1nc2ccccn2c(=O)c1CCN1CC[C@H]2Nc3ccc(F)cc3[C@@H]2C1 (relative stereo) [Compound 17] | 0.08 mg/kg | 0.5 mg/kg | ≤ 0.04 mg/kg | –
9 | Cc1nc2n(c(=O)c1CCN1CC[C@H]3Nc4ccc(F)cc4[C@@H]3C1)CCCC2 (relative stereo) [Compound 18] | 0.31 mg/kg | 2 mg/kg | 0.02 mg/kg | –
10 | Cc1nc2sccn2c(=O)c1CCN1CC[C@@H]2[C@@H](C1)c1ccccc1N2C (relative stereo) [Compound 19] | 8 mg/kg | 1.25 mg/kg | 0.31 mg/kg | 5 mg/kg
11 | Cc1nc2ccccn2c(=O)c1CCN1CC[C@@H]2[C@@H](C1)c1ccccc1N2C (relative stereo) [Compound 20] | 1.25 mg/kg | 1.25 mg/kg | ≤ 0.63 mg/kg | 5 mg/kg
12 | Cc1nc2sccn2c(=O)c1CCN1CC[C@H]2[C@H](C1)c1cc(F)ccc1N2c1ccc(F)cc1 (relative stereo) [Compound 22] | 1.25 mg/kg | 1.25 mg/kg | 0.08 mg/kg | 0.5 mg/kg
13 | Cc1nc2scc(C)n2c(=O)c1CCN1CC[C@@H]2[C@@H](C1)c1cc(F)ccc1N2c1ccc(F)cc1 (relative stereo) [Compound 24] | 5 mg/kg | 1.25 mg/kg | ≤ 0.04 mg/kg | –
14 | Cc1nc2n(c(=O)c1CCN1CC[C@@H]3[C@@H](C1)c1cc(F)ccc1N3c1ccc(F)cc1)CCCC2 (relative stereo) [Compound 25] | 0.31 mg/kg | 0.12 mg/kg | 0.02 mg/kg | –
15 | Cc1nc2sccn2c(=O)c1CCN1CC[C@H]2Nc3ccc(Cl)cc3[C@@H]2C1 (relative stereo) [Compound 26] | 0.03 mg/kg | 0.02 mg/kg | 0.005 mg/kg | –
16 | Cc1nc2scc(C)n2c(=O)c1CCN1CC[C@H]2Nc3ccc(Cl)cc3[C@@H]2C1 (relative stereo) [Compound 27] | 0.31 mg/kg | 0.31 mg/kg | 0.005 mg/kg | –
17 | Cc1nc2ccccn2c(=O)c1CCN1CC[C@H]2Nc3ccc(Cl)cc3[C@@H]2C1 (relative stereo) [Compound 28] | 0.08 mg/kg | 0.12 mg/kg | 0.005 mg/kg | > 10 mg/kg
18 | COc1ccc2c(c1)[C@@H]1CN(CCc3c(C)nc4sccn4c3=O)CC[C@H]1N2 (relative stereo) [Compound 29] | 5 mg/kg | 5 mg/kg | 0.02 mg/kg | –
19 | COc1ccc2c(c1)[C@@H]1CN(CCc3c(C)nc4ccccn4c3=O)CC[C@H]1N2 (relative stereo) [Compound 30] | ≥ 10 mg/kg | 2 mg/kg | ≤ 0.16 mg/kg | –
20 | Cc1nc(NCc2ccccc2)n(C)c(=O)c1CCN1CC[C@H]2Nc3ccc(F)cc3[C@@H]2C1 (relative stereo) [Compound 31] | 1.25 mg/kg | ≥ 10 mg/kg | ≤ 0.16 mg/kg | > 10 mg/kg
